The results in this text go back to US20220275390A1, “RUBISCO-BINDING PROTEIN MOTIFS AND USES THEREOF” (The Trustees of Princeton University, priority 2019, published 2022).

For one assay, the target named is T1, Rubisco (Chlamydomonas reinhardtii, UniProt P00873).
T1 construct: Rubisco was purified from Chlamydomonas reinhardtii strain cMJ030; endogenous in cells; host or cells: Chlamydomonas reinhardtii strain cMJ030 (wild type); holoenzyme purified from lysate by sucrose gradient and anion exchange
As to the kind of experiment: Surface plasmon resonance (SPR) assay of peptides binding to immobilized Rubisco. As to the method:
Surface Plasmon Resonance (SPR) Assay Rubisco was immobilized on a surface and peptides in solution were flowed over the surface. Surface plasmon measurements of binding of individual peptides to Rubisco were assayed (FIG. 3B).
Rubisco was purified from Chlamydomonas reinhardtii strain cMJ030. Cells were disrupted by ultrasonication in lysis buffer (10 mM MgCl2, 50 mM Bicine, 10 mM NaHCO3, 1 mM dithiothreitol (DTT) pH 8.0) supplemented with Halt Protease Inhibitor Cocktail, EDTA-Free (Fisher Scientific). The soluble lysate was fractionated by ultracentrifuge in a 10%-30% sucrose gradient in a SW 41 Ti rotor at 35,000 rpm for 20 hours at 4° C. Rubisco-containing fractions were applied to an anion exchange column (MONO Q 5/50 GL, GE Healthcare) and fractionated by using a linear salt gradient from 0 to 0.5 M NaCl (10 mM MgCl2, 50 mM Bicine, 10 mM NaHCO3, 1 mM dithiothreitol pH 8.0).
Mutagenesis of EPYC1, Mutagenesis of Rubisco, Yeast Two-hybrid, Peptide Arrays and SPR Assays To determine the importance of individual EPYC1 residues for binding to Rubisco, the impact on Rubisco binding of every possible single amino acid substitution for EPYC1 RBM 2 was determined (FIG. 8). […]
SPR Assays: The Rubisco-binding capacity for the C-terminal motif variant (W[+]xxΨ ) was determined using SPR by probing purified Rubisco with fifteen amino acid-long synthetic peptides. […]
(In general: SPR reads the build-up and loss of mass on a sensor chip optically.)

The test system of a further assay is C. reinhardtii cells. Put plainly: Confocal fluorescence microscopy localization of Venus fusion proteins. It is filed as cell-based, Chlamydomonas reinhardtii. The conditions noted are these: Venus fluorescence in C. reinhardtii cells. The text has this:
A synthetic […] (Invitrogen) containing a 643 bp restriction fragment containing the C-terminus of Venus, followed by the sequence coding for the FLAG-tag sequence, and a sequence coding for three repetitions of the 15 C-terminal amino acids of SAGA2, was cloned into pLM005-FDX1, after restriction digestion with EcoRl and PfIMI. GenBank accession number of the empty pLM005 is KX077945.1. The plasmid pLM005-FDX1 is identical to pLM005 with the genomic sequence of FDX1 cloned in frame by Gibson Assembly (Mackinder et al., PNAS 113: 5958-5963, 2015) between residues 2698 and 3234. The terminal 85 amino acids of resultant mature fusion protein, immediately downstream of the FLAG-tag, were a 5 aa linker (GGGGS; SEQ ID NO: 87), a first copy of SAGA2 15 C-terminal aa, followed by a 10 aa linker (2X GGGGS; SEQ ID NO: 88), a second copy of SAGA2 15 last aa, another 10 aa linker (2X GGGGS; SEQ ID NO: 88), and finally a third copy of SAGA2 15 last aa. The sequence of the EcoRI-PfIMI digestion fragment (SEQ ID NO: 89) was cloned in frame into pLM005-FDX1.
Culturing and Transformation of C. reinhardtii: Culturing and transformation of C. reinhardtii for fluorescence localization of protein and imaging was performed as described in Mackinder et al. (PNAS 113: 5958-5963, 2015). […]

Residues, ends and D or L forms follow the SMILES beside them.

T1 sequence (P00873 46-185, other chains not shown): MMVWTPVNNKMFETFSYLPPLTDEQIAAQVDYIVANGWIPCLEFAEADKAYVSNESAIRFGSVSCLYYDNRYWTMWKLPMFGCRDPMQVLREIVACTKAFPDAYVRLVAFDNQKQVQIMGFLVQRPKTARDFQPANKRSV

As to `CC(C)C[C@H](NC(=O)[C@H](CO)NC(=O)[C@H](CCC(=O)O)NC(=O)[C@H](CC(C)C)NC(=O)[C@H](CCC(=O)O)NC(=O)[C@H](CCC(N)=O)NC(=O)[C@H](CCCNC(=N)N)NC(=O)[C@H](Cc1c[nH]c2ccccc12)NC(=O)[C@H](CC(N)=O)NC(=O)[C@H](C)NC(=O)[C@@H]1CCCN1C(=O)[C@H](CC(C)C)NC(=O)[C@@H](NC(=O)[C@H](CO)NC(=O)[C@H](CCCNC(=N)N)NC(=O)[C@@H](NC(=O)[C@@H]1CCCN1C(=O)[C@H](CO)NC(=O)[C@@H](NC(=O)[C@H](CCCNC(=N)N)NC(=O)[C@H](CC(N)=O)NC(=O)[C@@H](N)[C@@H](C)O)C(C)C)[C@@H](C)O)C(C)C)C(=O)N[C@@H](CCCNC(=N)N)C(=O)N[C@@H](CC(N)=O)C(=O)O` [EPYC1 fragment] (H-TNRVSPTRSVLPANWRQELESLRN-OH), the Kd came out at 3.09 mM on Rubisco (KD, 24 amino acid EPYC1 fragment spanning RBM 2 binding to Rubisco, FIG. 4C) and 3 mM on Rubisco (Kd, individual EPYC1 RBM peptides binding to Rubisco).

For the compound “RBMP2-Venus: Rubisco-Binding Membrane Protein 2 (SEQ ID NO: 2) fused to the Venus fluorescent protein”, the “localization pattern within the pyrenoid” value in the assay with C. reinhardtii cells (FIG. 15) is on record as “confined to the very heart of the pyrenoid”. For the same compound, in the assay with C. reinhardtii cells (FIGS. 14B and 15), the localization entry was “localized to the pyrenoid”.

In general, Kd refers to the concentration at which binding is half-saturated. A low value points to tighter binding.
